Our source for the Activity and inhibition values is ChEMBL document CHEMBL3351675, “Novel benzenesulfonylureas containing thiophenylpyrazoline moiety as potential antidiabetic and anticancer agents” (Bioorg Med Chem Lett, 2014).

Series [1] is described as follows: Anticancer activity against human UACC257 cells assessed as cell growth level at 10 uM after 48 hrs by sulforhodamine B assay. It is filed as functional, UACC-257. Background: In SRB staining, fixed cells bind dye roughly in proportion to their protein.
In a further series the test system is IGROV-1. The experiment in a line: Anticancer activity against human IGROV1 cells assessed as cell growth level at 10 uM after 48 hrs by sulforhodamine B assay. The series is classed as functional.
Another series deals with SN12C. The experiment in a line: Anticancer activity against human SN12C cells assessed as cell growth level at 10 uM after 48 hrs by sulforhodamine B assay. It is filed as functional.
A further series has as its system TK-10. The experiment in a line: Anticancer activity against human TK10 cells assessed as cell growth level at 10 uM after 48 hrs by sulforhodamine B assay. The series is classed as functional.
A short description of series [2]: Anticancer activity against human PC3 cells assessed as cell growth level at 10 uM after 48 hrs by sulforhodamine B assay. The series is classed as functional, PC-3.
The test system of a further series is DU-145. The experiment in a line: Anticancer activity against human DU145 cells assessed as cell growth level at 10 uM after 48 hrs by sulforhodamine B assay. It is filed as functional.
The next series relates to T47D. Briefly: Anticancer activity against human T47D cells assessed as cell growth level at 10 uM after 48 hrs by sulforhodamine B assay. It is filed as functional.
The subject of series [3] is Rattus norvegicus. The experiment in a line: Antidiabetic activity in Wistar rat model of streptozotocin-induced diabetes assessed as reduction in plasma glucose level at 30 mg/kg, po and dosage repeated for 15 days by GOD-POD method. It is filed as functional, organism-based. On the set-up: dose 30 mg/kg.
Series [4] relates to Rattus norvegicus. The experiment in a line: Effect on body weight in Wistar rat model of streptozotocin-induced diabetes at 30 mg/kg, po measured over 15 days. The series is classed as ADME, organism-based. Also on record: dose 30 mg/kg, route oral. The following applies: in vivo, 360 h.
A further series concerns K562. Briefly: Anticancer activity against human K562 cells assessed as cell growth level at 10 uM after 48 hrs by sulforhodamine B assay. The series is classed as functional.
Series [5] can be described thus: Anticancer activity against human MOLT4 cells assessed as cell growth level at 10 uM after 48 hrs by sulforhodamine B assay. It is filed as functional, MOLT-4.
Series [6] can be described thus: Anticancer activity against human RPMI8226 cells assessed as cell growth level at 10 uM after 48 hrs by sulforhodamine B assay. It is filed as functional, RPMI-8226.
In the next series the test system is HOP-62. The experiment in a line: Anticancer activity against human HOP62 cells assessed as cell growth level at 10 uM after 48 hrs by sulforhodamine B assay. The series is classed as functional.
The next series concerns NCI-H522. The experiment in a line: Anticancer activity against human NCI-H522 cells assessed as cell growth level at 10 uM after 48 hrs by sulforhodamine B assay. It is filed as functional.
For another series, the system named is SNB-19. Briefly: Anticancer activity against human SNB19 cells assessed as cell growth level at 10 uM after 48 hrs by sulforhodamine B assay. It is filed as functional.
In the next series the test system is U-251. The experiment in a line: Anticancer activity against human U251 cells assessed as cell growth level at 10 uM after 48 hrs by sulforhodamine B assay. The series is classed as functional.
Series [7] is described as follows: Anticancer activity against human LOXIMVI cells assessed as cell growth level at 10 uM after 48 hrs by sulforhodamine B assay. It is filed as functional, LOX IMVI.
The subject of series [8] is Rattus norvegicus. The experiment in a line: Increase in body weight in Wistar rat model of streptozotocin-induced diabetes at 30 mg/kg, po measured over 15 days. The following applies: in vivo, 360 h. On the set-up: dose 30 mg/kg, route oral. The series is classed as ADME, organism-based.

Each structure is given as a SMILES string. Activity calls are given as the source filed them. The rule behind the calls is not given here.

Regarding `COc1ccc(NC(=O)NS(=O)(=O)c2ccc(N3N=C(c4cccs4)CC3c3ccc(C)s3)cc2)cc1` (centres undefined), the Activity in series [1] was 49.98%; with IGROV-1, 108.05%; in the series with SN12C it was 111.79%; with TK-10 it was 96.03%; in [2], 96.33%; in the series on DU-145, 105.62%. Besides, the Activity in the series on T47D is 85.68%; with Rattus norvegicus [4] it was “Non-toxic”; with K562, 111.39%; in series [5], 94.7%; in series [6], 95.29%; in the series on HOP-62, 81.02%. Also, the Activity was determined as 87.33% with NCI-H522, 103.16% with SNB-19, 98.07% with U-251 and 96.81% in series [7]. Further, the inhibition result in the series on Rattus norvegicus [3] is “Active”.

On to `Cc1ccc(NC(=O)NS(=O)(=O)c2ccc(N3N=C(c4cccs4)CC3c3ccc(C)s3)cc2)cc1` (centres undefined), for which the Activity in [1] came to 61.42%; in the series with IGROV-1, 107.76%; in the series with SN12C it was 111.21%; in the series on TK-10, 96.78%; in [2], 86.34%; in the series with DU-145 it was 102.33%. Besides, the Activity in the series with T47D was 78.79%; with Rattus norvegicus [8] it was “Toxic”; with Rattus norvegicus [4] it was “Non-toxic”; in the series with K562, 113.81%; in series [5] it was 94.41%; in [6] it was 83.37%. In addition, the Activity in the series on HOP-62 came out at 76.92%; in the series on NCI-H522 it was 91.51%; in the series on SNB-19, 108.18%; in the series on U-251, 94.12%; in [7], 99.74%.
